Experimental findings from ChEMBL document CHEMBL3351745, “Synthesis and in vitro evaluation of radioiodinated indolequinones targeting NAD(P)H: quinone oxidoreductase 1 for internal radiation therapy” (Bioorg Med Chem, 2014) are described below.

The structures appear in SMILES notation.

A short description of data set [1]: Stability of the compound in PBS assessed as compound remaining at 74 KBq at pH 7.4 after 24 hrs by reversed phase TLC analysis. The class given is physicochemical. The conditions noted are these: read-out: Stability.
Data set [2] in a line: Stability in mouse plasma assessed as compound remaining at 74 KBq after 24 hrs by reversed phase TLC analysis. The class given is ADME, cell-free. The note with it: read-out: Stability.
The target of data set [3] is NAD(P)H dehydrogenase [quinone] 1 (printed NOQ-1) (Homo sapiens, UniProt P15559). The data set is described as follows: Activity of NOQ-1 expressed in human HT-29 cell lysate assessed as compound remaining at 185 KBq after 2 hrs by reversed phase TLC analysis. The class given is ADME, cell-free. The conditions noted are these: read-out: Stability.
NAD(P)H dehydrogenase [quinone] 1 (printed NOQ-1), sequence (P15559 whole entry): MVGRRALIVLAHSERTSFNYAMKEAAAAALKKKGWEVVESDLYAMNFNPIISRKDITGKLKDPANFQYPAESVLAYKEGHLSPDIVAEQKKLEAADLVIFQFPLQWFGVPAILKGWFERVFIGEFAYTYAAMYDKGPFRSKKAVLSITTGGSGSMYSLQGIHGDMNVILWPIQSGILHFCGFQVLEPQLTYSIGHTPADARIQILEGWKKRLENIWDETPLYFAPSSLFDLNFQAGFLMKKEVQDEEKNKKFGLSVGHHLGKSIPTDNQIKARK
The target of data set [4] is NAD(P)H dehydrogenase [quinone] 1 (Homo sapiens, UniProt P15559). Briefly: Activity of NOQ-1 expressed in human HT-29 cell lysate assessed as p-[125I]-iodophenol formation at 185 KBq after 2 hrs by reversed phase TLC analysis. The class given is ADME, cell-free. The note with it: ht-29, 2 h.
NAD(P)H dehydrogenase [quinone] 1, sequence (P15559 whole entry): as above
Data set [5] concerns HT-29. Briefly: Cellular uptake in human HT-29 cells at 18.5 kBq up to 5 mins by gamma-counting analysis. The class given is ADME, cell-based. The conditions noted are these: ht-29, 5 min.
Data set [6] relates to HT-29. The data set is described as follows: Cellular uptake in human HT-29 cells at 18.5 kBq after 2 hrs by gamma-counting analysis. The class given is ADME, cell-based. The note with it: ht-29, 2 h.
Data set [7] can be described thus: Drug metabolism in human HT-29 cells assessed as compound remaining at 18.5 kBq after 60 mins by reversed phase TLC analysis. The conditions noted are these: read-out: Stability. The class given is ADME, cell-based.
Data set [8] has as its system HT-29. The data set is described as follows: Drug metabolism in human HT-29 cells assessed as p-[125I]-iodophenol formation at 18.5 kBq after 60 mins by reversed phase TLC analysis. The note with it: ht-29, 1 h. In kind it is ADME, cell-based.
The subject of data set [9] is HT-29. The data set is described as follows: Drug metabolism in human HT-29 cells assessed as m-[125I]-iodophenol formation at 18.5 kBq after 60 mins by reversed phase TLC analysis. The conditions noted are these: ht-29, 1 h. In kind it is ADME, cell-based.
The test system of data set [10] is HT-29. Briefly: Drug metabolism in human HT-29 cells assessed as [125I]-I formation at 18.5 kBq after 60 mins by reversed phase TLC analysis. The class given is ADME, cell-based. The conditions noted are these: ht-29, 1 h.
Data set [11] in a line: Stability of the compound in cell culture media. In kind it is physicochemical.
Data set [12] relates to A549. The data set is described as follows: Cellular uptake in human A549 cells at 18.5 kBq after 1 to 120 mins by gamma-counting analysis. In kind it is ADME, cell-based.
The subject of data set [13] is A549. The data set is described as follows: Drug metabolism in human A549 cells assessed as p-[125I]-iodophenol formation at 18.5 kBq after 60 mins by reversed phase TLC analysis. In kind it is ADME, cell-based. The conditions noted are these: a549, 1 h.
Data set [14] has as its system A549. Briefly: Drug metabolism in human A549 cells assessed as [125I]-I formation at 18.5 kBq after 60 mins by reversed phase TLC analysis. The class given is ADME, cell-based. The conditions noted are these: a549, 1 h.
Data set [15] deals with A549. Briefly: Cellular uptake in human A549 cells at 18.5 kBq by gamma-counting analysis. In kind it is ADME, cell-based.
Data set [16] can be described thus: Ratio of cellular uptake in human A549 cells to cellular uptake in human HT-29 cells. The class given is ADME, cell-based.
Data set [17] is described as follows: Drug metabolism in human A549 cells assessed as compound remaining at 18.5 kBq after 60 mins by reversed phase TLC analysis. The note with it: read-out: Stability. In kind it is ADME, cell-based.
Data set [18] deals with A549. Briefly: Cellular uptake in human A549 cells at 18.5 kBq after 30 mins by gamma-counting analysis in presence of 3-([{4-Iodophenyl}thio]methyl)-5-methoxy-1,2-dimethyl-1H-indole-4,7-dione. In kind it is ADME, cell-based. The note with it: a549, 0.5 h.
The subject of data set [19] is HT-29. The data set is described as follows: Cellular uptake in human HT-29 cells at 18.5 kBq after 30 mins by gamma-counting analysis in presence of 3-([{4-Iodophenyl}thio]methyl)-5-methoxy-1,2-dimethyl-1H-indole-4,7-dione. The class given is ADME, cell-based. The conditions noted are these: ht-29, 0.5 h.
Data set [20] has as its system HT-29. Briefly: Drug level in human HT-29 cells treated with 18.5 kBq [125I]-3-([4-Iodophenoxy]methyl)-5-methoxy-1,2-dimethyl-1Hindole-4,7-dione after 60 mins by reversed phase TLC analysis. The class given is ADME, cell-based. The conditions noted are these: ht-29, 1 h.
Data set [21] relates to HT-29. The data set is described as follows: Drug level in human HT-29 cells treated with 18.5 kBq [125I]-3-([3-Iodophenoxy]methyl)-5-methoxy-1,2-dimethyl-1Hindole-4,7-dione after 60 mins by reversed phase TLC analysis. The class given is ADME, cell-based. The conditions noted are these: ht-29, 1 h.
Data set [22] concerns A549. Briefly: Drug level in human A549 cells treated with 18.5 kBq [125I]-3-([4-Iodophenoxy]methyl)-5-methoxy-1,2-dimethyl-1Hindole-4,7-dione after 60 mins by reversed phase TLC analysis. In kind it is ADME, cell-based. The conditions noted are these: a549, 1 h.

As to `COC1=CC(=O)c2c(c(COc3ccc([125I])cc3)c(C)n2C)C1=O`, the remaining at 24 h, 74 KBq was above 90% in data set [1] and 80% in data set [2]. For the same molecule, the remaining at 2 h, 185 KBq in data set [3] was below 25%. The Drug metabolism entry (in data set [4]; with HT-29 [8]; with HT-29 [9]; with HT-29 [10]; in the data set with A549 [13]; in the data set with A549 [14]) was “metabolite_detected” in each case. Moreover, the Drug uptake result with HT-29 [5], in the data set on HT-29 [6] and with A549 [12] was “Active” each time. In addition, in [7], the remaining at 1 h, 18.5 kBq was below 10%. Further, the Stability result in [11] is recorded as “Stable”.

In the case of `COC1=CC(=O)c2c(c(COc3cccc([125I])c3)c(C)n2C)C1=O`, the remaining at 24 h, 74 KBq is above 90% in data set [1] and 80% in data set [2]. Moreover, the Drug uptake result with HT-29 [5] and in the data set on HT-29 [6] was “Active” in each case. Further, the remaining at 1 h, 18.5 kBq in [7] is below 10%. Moreover, the Drug metabolism result with HT-29 [8], in the data set on HT-29 [9] and in the data set with HT-29 [10] was “metabolite_detected” throughout. Also, the Stability result in [11] is listed as “Stable”.

In the case of `COC1=CC(=O)c2c(c(CSc3ccc([125I])cc3)c(C)n2C)C1=O`, the remaining at 24 h, 74 KBq in data set [1] was above 90%; in data set [2], above 97%. Moreover, the remaining at 2 h, 185 KBq in [3] came out at 92%. Further, the Drug uptake result in the data set on HT-29 [6] was “Active”; in the data set with A549 [15], “Dose-dependent effect”; in the data set on A549 [18], “Not Active”; in the data set on HT-29 [19], “Not Active”. In addition, in data set [11], the Stability entry is on record as “Stable”. Also, in data set [16], the Ratio stood at 4. For the same molecule, the remaining at 1 h, 18.5 kBq in data set [17] was above 85%.

On to `Oc1ccc([125I])cc1`, for which the Drug uptake entry in the data set on HT-29 [20], with HT-29 [21] and in the data set with A549 [22] was “Active” in each case.

Regarding `Oc1cccc([125I])c1`, the Drug uptake result in the data set with HT-29 [20] and in the data set on HT-29 [21] was “Active” throughout.

For the molecule `[125IH]`, the Drug uptake entry in the data set with HT-29 [20], in the data set with HT-29 [21] and in the data set on A549 [22] was “Active” in each case.
